Conditions: in water

C=CCC
Conditions | solubility (mole fraction)
293.15 K | 9.53e-05
295.15 K | 8.78e-05
298.15 K | 7.97e-05
300.15 K | 7.44e-05
303.15 K | 6.77e-05
305.15 K | 6.42e-05
308.15 K | 5.96e-05
310.15 K | 5.56e-05
313.15 K | 5.24e-05
315.15 K | 4.9e-05
318.15 K | 4.63e-05
320.15 K | 4.42e-05
323.15 K | 4.12e-05

Reference: BigSolDB 2.1
